Experimental data: patent US12497406B2, “Microbiocidal derivatives” (SYNGENTA CROP PROTECTION AG, priority 2019, dated 2025)

How the values were obtained:
[1] = tested on: Alternaria solani; test: Alternaria solani / tomato / leaf disc (early blight); assay type: in vivo; conditions: foliar, tomato leaf disks cv. Baby, inoculated 2 days after application, compared to untreated control
Method: Example B1. Alternaria solani/Tomato/Leaf Disc (Early Blight) Tomato leaf disks cv. Baby are placed on agar in multiwell plates (24-well format) and sprayed with the formulated test compound diluted in water. The leaf disks are inoculated with a spore suspension of the fungus 2 days after application. The inoculated leaf disks are incubated at 23° C./21° C. […] […]-24, and P-25.

[2] = tested on: Glomerella lagenarium (Colletotrichum lagenarium); test: Glomerella lagenarium (Colletotrichum lagenarium) / liquid culture (anthracnose); assay type: cell-based; conditions: Colletotrichum orbiculare, liquid culture (PDB), growth inhibition photometrically 3-4 days after application, compared to untreated control
Method: (§1) Example B3. Glomerella lagenarium (Colletotrichum lagenarium)/Liquid Culture (Anthracnose) Conidia of the fungus from cryogenic storage are directly mixed into nutrient broth (PDB potato dextrose broth). After placing a (DMSO) solution of test compound into a microtiter plate (96-well format), the nutrient broth containing the fungal spores is added. The test plates are incubated at 24° C. and the inhibition of growth is measured photometrically 3-4 days after application. […] […]-25, and P-26.

[3] = tested on: Monographella nivalis (Microdochium nivale); test: Monographella nivalis (Microdochium nivale) / liquid culture (foot rot cereals); assay type: cell-based; conditions: liquid culture (PDB), growth inhibition photometrically 4-5 days after application, compared to untreated control
Method: as §1, with “B6. Monographella nivalis (Microdochium nivale)/Liquid” for “B3. Glomerella lagenarium (Colletotrichum lagenarium)/Liquid”, “(Foot Rot Cereals)” for “(Anthracnose)”, “determined” for “measured”, “4-5” for “3-4”

[4] = tested on: Mycosphaerella arachidis (Cercospora arachidicola); test: Mycosphaerella arachidis (Cercospora arachidicola) / liquid culture (early leaf spot); assay type: cell-based; conditions: liquid culture (PDB), growth inhibition photometrically 4-5 days after application, compared to untreated control
Method: Example B7. Mycosphaerella arachidis (Cercospora arachidicola)/Liquid Culture (Early Leaf Spot) Conidia of the fungus from cryogenic storage are directly mixed into nutrient broth (PDB potato dextrose broth). After placing a (DMSO) solution of test compound into a microtiter plate (96-well format), the nutrient broth containing the fungal spores is added. The test plates are incubated at 24° C. and the inhibition of growth is determined photometrically 4-5 days after application. […] […]-22, and P-25.

[5] = tested on: Puccinia recondita f. sp. tritici; test: Puccinia recondita f. sp. tritici / wheat / leaf disc preventative (brown rust); assay type: in vivo; conditions: foliar, wheat leaf segments cv. Kanzler, inoculated 1 day after application, compared to untreated control
Method: Example B8. Puccinia recondita f. Sp. tritici/Wheat/Leaf Disc Preventative (Brown Rust) Wheat leaf segments cv. Kanzler are placed on agar in multiwell plates (24-well format) and sprayed with the formulated test compound diluted in water. The leaf disks are inoculated with a spore suspension of the fungus 1 day after application. The inoculated leaf segments are incubated at 19° C. and 75% rh under a light regime of 12 h light/12 h darkness in a climate cabinet and the activity of a compound is assessed as percent disease control compared to untreated when an appropriate level of disease damage appears in untreated check leaf segments (7-9 days after application). […] […]-25, and P-26.

[6] = tested on: Pyrenophora teres; test: Pyrenophora teres / barley / leaf disc preventative (net blotch); assay type: in vivo; conditions: foliar, barley leaf segments cv. Hasso, inoculated 2 days after application, compared to untreated control
Method: Example B10. Pyrenophora teres/Barley/Leaf Disc Preventative (Net Blotch) Barley leaf segments cv. Hasso are placed on agar in a multiwell plate (24-well format) and sprayed with the formulated test compound diluted in water. The leaf segments are inoculated with a spore suspension of the fungus 2 days after application. The inoculated leaf segments are incubated at 20° C. and 65% rh under a light regime of 12 h light/12 h darkness in a climate cabinet and the activity of a compound is assessed as disease control compared to untreated when an appropriate level of disease damage appears in untreated check leaf segments (5-7 days after application). […] […]-25, and P-26.

[7] = tested on: Mycosphaerella graminicola (Septoria tritici); test: Mycosphaerella graminicola (Septoria tritici) / liquid culture (Septoria blotch); assay type: cell-based; conditions: Zymoseptoria tritici, liquid culture (PDB), growth inhibition photometrically 4-5 days after application, compared to untreated control
Method: (§2) Example B11. Mycosphaerella graminicola (Septoria tritici)/Liquid Culture (Septoria Blotch) Conidia of the fungus from cryogenic storage are directly mixed into nutrient broth (PDB potato dextrose broth). After placing a (DMSO) solution of test compound into a microtiter plate (96-well format), the nutrient broth containing the fungal spores is added. The test plates are incubated at 24° C. and the inhibition of growth is determined photometrically 4-5 days after application.

[8] = tested on: Magnaporthe grisea (Pyricularia oryzae); test: whole plant or invertebrate; assay type: in vivo; conditions: foliar, read-out: control of Magnaporthe grisea
[9] = tested on: Botryotinia fuckeliana (Botrytis cinerea); test: Botryotinia fuckeliana (Botrytis cinerea) / liquid culture (gray mould); assay type: cell-based; conditions: 20 ppm; liquid culture (Vogels broth), growth inhibition photometrically 3-4 days after application; compared to untreated control
Method: as §2, with “B2. Botryotinia fuckeliana (Botrytis cinerea)/Liquid” for “B11. Mycosphaerella graminicola (Septoria tritici)/Liquid”, “(Gray Mould)” for “(Septoria Blotch)”, “(Vogels” for “(PDB potato dextrose”, “3-4” for “4-5”, “application. […] P-22.” for “application.”

**Q.** Which results are given for `CC1(C)CCC1NC(=O)c1nc(Nc2cccc(F)c2)cc2c1OCO2` (centres unmarked) [Compound P-8, N-(2,2-dimethylcyclobutyl)-6-(3-fluoroanilino)-[1,3]dioxolo[4,5-c]pyridine-4-carboxamide]?
**A.** pest or weed control at 200 ppm [1]: ≥ 80%; inhibition of growth at 20 ppm [2]: ≥ 80%; inhibition of growth at 20 ppm [3]: ≥ 80%; inhibition of growth at 20 ppm [4]: ≥ 80%; pest or weed control at 200 ppm [5]: ≥ 80%; pest or weed control at 200 ppm [6]: ≥ 80%; inhibition of growth at 20 ppm [7]: ≥ 80%

**Q.** Which results are given for `CC1(NC(=O)c2nc(Nc3cc(F)cc(F)c3)cc3c2OCO3)CCCC1` [Compound P-25, 6-(3,5-difluoroanilino)-N-(1-methylcyclopentyl)-[1,3]dioxolo[4,5-c]pyridine-4-carboxamide]?
**A.** pest or weed control at 200 ppm [1]: ≥ 80%; inhibition of growth at 20 ppm [2]: ≥ 80%; inhibition of growth at 20 ppm [3]: ≥ 80%; inhibition of growth at 20 ppm [4]: ≥ 80%; pest or weed control at 200 ppm [5]: ≥ 80%; pest or weed control at 200 ppm [8]: ≥ 80%; pest or weed control at 200 ppm [6]: ≥ 80%; inhibition of growth at 20 ppm [7]: ≥ 80%

**Q.** With `CC1(NC(=O)c2nc(Nc3cc(F)cc(F)c3)cc3c2OCO3)CCC1` [Compound P-22, 6-(3,5-difluoroanilino)-N-(1-methylcyclobutyl)-[1,3]dioxolo[4,5-c]pyridine-4-carboxamide] as the compound, how does the pest or weed control at 200 ppm [1] read?
**A.** Its pest or weed control at 200 ppm is no less than 80%.

**Q.** And the “control of Botryotinia fuckeliana” value [9]?
**A.** Its value is “at least 80%”.

**Q.** What about the inhibition of growth at 20 ppm [2] of the same compound?
**A.** The inhibition of growth at 20 ppm was no less than 80%.

**Q.** What about the inhibition of growth at 20 ppm [3] of the same compound?
**A.** The inhibition of growth at 20 ppm was no less than 80%.

**Q.** And the inhibition of growth at 20 ppm [4]?
**A.** Its inhibition of growth at 20 ppm is no less than 80%.

**Q.** And the pest or weed control at 200 ppm [5]?
**A.** The pest or weed control at 200 ppm was no less than 80%.

**Q.** And the pest or weed control at 200 ppm [8]?
**A.** The pest or weed control at 200 ppm was no less than 80%.

**Q.** What about the pest or weed control at 200 ppm [6] of the same compound?
**A.** The pest or weed control at 200 ppm was no less than 80%.

**Q.** And the inhibition of growth at 20 ppm [7]?
**A.** The inhibition of growth at 20 ppm was no less than 80%.

**Q.** `CC(C)(C)NC(=O)c1nc(Nc2cc(F)cc(F)c2)cc2c1OCO2` [Compound P-21, N-tert-butyl-6-(3,5-difluoroanilino)-[1,3]dioxolo[4,5-c]pyridine-4-carboxamide] was tested. Which pest or weed control at 200 ppm [1] did it give?
**A.** Its pest or weed control at 200 ppm is no less than 80%.

**Q.** What about the inhibition of growth at 20 ppm [2] of the same compound?
**A.** The inhibition of growth at 20 ppm was no less than 80%.

**Q.** What about the inhibition of growth at 20 ppm [3] of the same compound?
**A.** Its inhibition of growth at 20 ppm is no less than 80%.

**Q.** What about the inhibition of growth at 20 ppm [4] of the same compound?
**A.** Its inhibition of growth at 20 ppm is no less than 80%.

**Q.** What about the pest or weed control at 200 ppm [5] of the same compound?
**A.** The pest or weed control at 200 ppm was no less than 80%.

**Q.** What about the pest or weed control at 200 ppm [8] of the same compound?
**A.** Its pest or weed control at 200 ppm is no less than 80%.

**Q.** And the pest or weed control at 200 ppm [6]?
**A.** Its pest or weed control at 200 ppm is no less than 80%.

**Q.** And the inhibition of growth at 20 ppm [7]?
**A.** The inhibition of growth at 20 ppm was no less than 80%.
